Data reported in US20090214439A1, “Fluorinated Carbohydrates and Their Use in Tumor Visualization, Tissue Engineering, and Cancer Chemotherapy” (Trustees of Tufts College, priority 2006, published 2009).

What was measured:
[1] = system: HL60 cells adhering to fibronectin; conditions: HL60 cells cultivated in the presence of the compound; literature data (Villavicencio-Lorini 2002; Horstkorte 2004); cited from earlier work
[2] = system: K88 (a sub clone of BJA-B); test: Incorporation of unnatural sialic acids in highly sialylated cells; type: cell-based, human
Experimental: (§1) To visualize and quantify the sialic acid incorporation on cell surfaces, 1,2-diamino-4,5-methylenedioxybenzene (DMB) was used as a fluorogenic reagent for labeling α-keto acids (FIG. 4). [Hara, S.; Yamaguchi, M.; Takemori, Y.; Furuhata, K.; Ogura, H.; Nakamura, M. “Determination of Mono-O-Acetylated N-Acetylneuraminic Acids in Human and Rat Sera by Fluorometric High-Performance Liquid-Chromatography” Anal. Biochem. 1989, 179, 162-6.] Briefly, the membrane fraction was obtained after incubation with a given compound (200 μM typical, 900 μM maximum) for 3 days. The membrane pellet was then hydrolyzed by use of 2 M AcOH at 80° C. and then allowed them to react with DMB to yield the corresponding quinoxalinone derivatives. The samples were analyzed by HPLC using a fluorescence detector. The retention times (by comparison to an authentic sample) provide information about the identity, LC ESI-MS unambiguously confirms the molecular structure, and integration of the peaks gives quantitative information on the relative amounts of membrane-derived sialic acids.
(§2) Roughly 75% of the total sialic acid (using substrate 5g) on the cell surface was fluorinated using these cell lines.

[3] = system: HL60-I cells (deficient in UDP-GlcNAc 2-epimerase); test: Replacement of Neu5Ac with unnatural sialic acids in hyposialylated cells; type: cell-based
Experimental: as §1
Replacement of Neu5Ac with Unnatural Sialic Acids in Hyposialylated Cells. Cell lines HL60-I and BJA-B K20, variants respectively of the parent HL60 and human B-cell lymphoma (BJA-B), are deficient in UDP-GlcNAc 2-epimerase and show a global suppression of sialylation of glycoconjugates, including expressing mostly unsialylated Lewis-X. [Keppler, 0. T.; Hinderlich, S.; Langner, J.; Schwartz-Albiez, R.; Reutter, W.; Pawlita, M. “UDP-GlcNAc 2-epimerase: A regulator of cell surface sialylation” Science 1999, 284, 1372-6.] Using these hyposialylated cell lines incorporation of fluorinated precursors was investigated and the overall percentage of sialic acids on cell surfaces that are fluorinated was assessed. Both HL60-I and BJA-B K20 cell lines served as metabolic hosts for fluorinated sialic acids 5-N-trifluoropropyl-Neu (5e) and 5-N-trifluorobutyl-Neu (5g) (FIG. 8). […] In contrast, untreated cells only contained Neu5Ac. […]

[4] = system: cell surfaces (Jurkat, HeLa and HL-60 cells); test: Cell surface expression of sialic acids, DMB labeling with fluorescence HPLC (cell line not stated); type: cell-based; conditions: 200 μM typical, 900 μM maximum, 3 days
Source text: Cell Surface Expression of Fluorinated Sialic Acids. […] These experiments assay the overall action of multiple biosynthetic steps downstream of sialic acid, namely activation, processing and attachment to proteins and lipids and finally successful trafficking to the membrane. As mentioned above, six derivatives of mannosamine have been prepared and tested. In order to bypass the most stringent step in sialic acid biosynthetic pathway (ManNAc 6-kinase), fluorinated sialic acids were also prepared for direct use in feeding experiments. Sialic acids were synthesized as described above by enzymatic conversion of mannosamines to the corresponding sialic acids. […]
To visualize and quantify the sialic acid incorporation on cell surfaces, 1,2-diamino-4,5-methylenedioxybenzene (DMB) was used as a fluorogenic reagent for labeling α-keto acids (FIG. 4). […] The samples were analyzed by HPLC using a fluorescence detector. The retention times (by comparison to an authentic sample) provide information about the identity, LC ESI-MS unambiguously confirms the molecular structure, and integration of the peaks gives quantitative information on the relative amounts of membrane-derived sialic acids. […]

HL60-II cells = test: Incorporation of unnatural sialic acids in highly sialylated cells; type: cell-based
Experimental: as §1, §2

[5] = system: BJA-B K20 cells (deficient in UDP-GlcNAc 2-epimerase); test: Replacement of Neu5Ac with unnatural sialic acids in hyposialylated cells; type: cell-based, human
Experimental: as §1
Replacement of Neu5Ac with Unnatural Sialic Acids in Hyposialylated Cells. […] Using these hyposialylated cell lines incorporation of fluorinated precursors was investigated and the overall percentage of sialic acids on cell surfaces that are fluorinated was assessed. […]

Jurkat cells = test: Cell surface expression of sialic acids, DMB labeling with fluorescence HPLC; type: cell-based; conditions: DMB conjugates of membrane fraction
Source text: (§3) Cell Surface Expression of Fluorinated Sialic Acids. […] These experiments assay the overall action of multiple biosynthetic steps downstream of sialic acid, namely activation, processing and attachment to proteins and lipids and finally successful trafficking to the membrane. As mentioned above, six derivatives of mannosamine have been prepared and tested. In order to bypass the most stringent step in sialic acid biosynthetic pathway (ManNAc 6-kinase), fluorinated sialic acids were also prepared for direct use in feeding experiments. Sialic acids were synthesized as described above by enzymatic conversion of mannosamines to the corresponding sialic acids. Fluorine containing sialic acids were fed to Jurkat, HeLa and HL-60 cells in the peracetylated, methyl ester form since Reutter and Bertozzi have independently shown that exogenous addition of sialic acids in this form results in efficient incorporation of a wide range of derivatives. The degree of fluorination on the N-acyl chain was varied from a single terminal trifluoromethyl group to a —C11F17 group.
(§4) To visualize and quantify the sialic acid incorporation on cell surfaces, 1,2-diamino-4,5-methylenedioxybenzene (DMB) was used as a fluorogenic reagent for labeling α-keto acids (FIG. 4). [Hara, S.; Yamaguchi, M.; Takemori, Y.; Furuhata, K.; Ogura, H.; Nakamura, M. “Determination of Mono-O-Acetylated N-Acetylneuraminic Acids in Human and Rat Sera by Fluorometric High-Performance Liquid-Chromatography” Anal. Biochem. 1989, 179, 162-6.] Briefly, the membrane fraction was obtained after incubation with a given compound (200 μM typical, 900 μM maximum) for 3 days. […] The samples were analyzed by HPLC using a fluorescence detector. The retention times (by comparison to an authentic sample) provide information about the identity, LC ESI-MS unambiguously confirms the molecular structure, and integration of the peaks gives quantitative information on the relative amounts of membrane-derived sialic acids.

[6] = system: HL60 cells adhering to fibronectin; test: Static adhesion of labeled cells to fibronectin-coated plates; type: cell-based; conditions: HL60 cells incubated 72 h with 200 μM compound; PMA or thapsigargin stimulation; 1 hour adhesion
Experimental: FIG. 9 depicts (a) adhesion of HL60 cells to plates coated with fibronectin in the presence of thapsigargin (Tg). The cells were incubated with compounds for 72 hours, washed with PBS and then allowed to adhere to plates. After 1 hr, unattached cells were removed by rinsing with PBS and then the number of cells quantified by addition of calcein-AM and fluorescence counting. (b) Similar assay as in (a) but with compounds 4a and 4d (data in (b) is taken from Horstkorte, R.; Rau, K.; Laabs, S.; Danker, K.; Reutter, W. “Biochemical engineering of the N-acyl side chain of sialic acid leads to increased calcium influx from intracellular compartments and promotes differentiation of HL60 cells” FEBS Lett. 2004, 571, 99-102).
Adhesion of Labeled Cells on Collagen and Fibronectin. The ability of cells labeled with fluorinated carbohydrates to adhere to fibronectin and collagen was also investigated. […] To quantify adhesion, 96-well plates were coated with fibronectin or collagen (10 μg/mL in PBS) for 16 hours at 4° C. followed by treatment with 1% BSA for 4 hours to block nonspecific adhesion sites. […] Unattached cells were washed away by rinsing with PBS and the cells were quantified by addition of the fluorogenic esterase substrate calcein-AM and followed by measurement of emission at 520 nm in a microtiter fluorescence plate reader. […]

HeLa cells = test: Cell surface expression of sialic acids, DMB labeling with fluorescence HPLC; type: cell-based
Source text: as §3, §4

| Molecule | increase of adhesion to fibronectin [1] | incorporation of the fluorinated sialic acid [2] | incorporation on the cell surface by LC ESI-MS [3] | incorporation on cell surfaces as sialoglycoconjugates [4] | incorporation of the fluorinated sialic acid (HL60-II cells) | incorporation on the cell surface by LC ESI-MS [5] | cell surface incorporation / expression (Jurkat cells) | adhesion to fibronectin compared to untreated cells [6] | total sialic acid on the cell surface that was fluorinated [2] | cell surface sialylation coming from exogenously added compound ([3]; DMB labeling and fluorescence HPLC) | total sialic acid on the cell surface that was fluorinated (HL60-II cells) | total sialic acid on the cell surface replaced (HeLa cells) | cell surface incorporation / expression (HeLa cells; DMB conjugates of membrane fraction) | decrease of adhesion to fibronectin compared to untreated cells [6] |
| --- | --- | --- | --- | --- | --- | --- | --- | --- | --- | --- | --- | --- | --- | --- |
| CCC(=O)N[C@@H]1C(O)O[C@H](CO)[C@@H](O)[C@@H]1O (stereo partly shown) [Compound 4d, N-propanoyl-mannosamine] | more than 130% |  |  |  |  |  |  |  |  |  |  |  |  |  |
| O=C(CC(F)(F)F)N[C@H]1[C@H]([C@H](O)[C@H](O)CO)OC(O)(C(=O)O)C[C@@H]1O (stereo partly shown) [Compound 5e, 5-N-trifluoropropyl-Neu] |  | readily incorporated | unambiguously confirmed | escorted and appended to cellular surfaces | readily incorporated | unambiguously confirmed | efficiently incorporated | decreased |  |  |  |  |  |  |
| 5-N-trifluorobutyl-Neu [Compound 5g] |  | readily incorporated | unambiguously confirmed | escorted and appended to cellular surfaces | readily incorporated | unambiguously confirmed |  |  | Roughly 75% | ~75% | Roughly 75% | 75% | Cell surface expression of 5g | ~70% |
